Data taken from PMC7349888, “Synthesis and Evaluation of Dodecaboranethiol Containing Kojic Acid (KA-BSH) as a Novel Agent for Boron Neutron Capture Therapy” (Cells, 2020).
pIC50: −log10 of the molar value. “And” between values parts separate entries of the source, which are not always exact repeats. Equal entries are not always repeated.

Experiments:
[1] = tested on: F98 rat glioma cells; experiment: In vitro 10B uptake in F98 cells (ICP-AES); format: cell-based; settings: 24 h incubation in DMEM with 1 mM boron compound
Procedure: For the in vitro ^10B uptake study, B16 mouse melanoma cells, C6 rat glioma cells, and F98 rat glioma cells were used. B16 and C6 cells were used for in vitro testing at Osaka Prefecture University. Based on results from initial in vitro screening, the in vitro ^10B uptake study using F98 glioma cells were performed at Osaka Medical College. Four hundred thousand cells were seeded in a tissue culture dish (100 × 20 mm; Becton Dickinson, Franklin Lakes, NJ, USA) with DMEM supplemented with 10% FBS and 10% penicillin and streptomycin at 37 °C in a 5% CO2 atmosphere. After incubation for 4 days at 37 °C, the medium was removed, and DMEM with 10% FBS containing 1 mM KA-BSH, BSH, or BPA was added to each dish. The cells were incubated for an additional 24 h at 37 °C. The medium was then removed, and the cells were washed twice with 4 °C phosphate-buffered saline (PBS) and detached with trypsin–ethylenediamine tetraacetic acid solution. PBS was then added, and cells were digested overnight with 1 N nitric acid solution (Wako Pure Chemical Industries, Osaka, Japan), and ^10B uptake was determined by inductively coupled plasma atomic emission spectrometry (ICP-AES) using an iCAP6000 emission spectrometer (Hitachi High-Technologies, Tokyo, Japan).

[2] = tested on: F98 rat glioma cells; experiment: Cell viability assay (WST-8) in F98 cells; format: cell-based; settings: WST-8 test, read-out: IC50 (cytotoxicity)
Procedure: The cytotoxicity of KA-BSH was assayed using the water soluble tetrazolium (WST)-8 assay with a cell-counting kit (Wako Pure Chemicals, Osaka, Japan) following a modified version of the manufacturer-provided protocols. Relative cell survival was calculated according to Equation (1):(1) Relative cell survival (%)=absorbance value of compound treated well/absorbance value of untreated well×100

[3] = tested on: F98 glioma bearing rats; experiment: Biodistribution in F98 glioma bearing rats (ICP-AES); format: in vivo, rat; settings: iv
From the text: All animal experimental procedures were approved by the Animal Use Review Board and Ethical Committee of Osaka Medical College (No. 25092, 28 October 2015) and Kyoto University Research Reactor Institute (KURRI, No. 25030-13, 1 April 2015), and performed following the Guide for the Care and Use of Laboratory Animals. Eight-week-old, male Fischer 344 rats weighing between 200 and 250 g were used (Japan SLC, Inc. Shizuoka, Japan). Rats were anesthetized with an intraperitoneal (ip) injection of a mixture of medetomidine 0.15 mg, midazolam 2 mg, and butorphanol 2.5 mg/kg body weight (bw). The head of each rat was fixed with a stereotactic frame (Model 900; David Kopf Instruments, Tujunga, CA, USA). The scalp was incised at the midline and a small burr hole was drilled into the skull (1 mm posterior and 4 mm right-lateral to the bregma), using an electric drill. And then, F98 glioma cells were injected into the brain using a 25 µL Hamilton microsyringe with a 26-gauge needle (model 1700 RN, Hamilton Bonaduz AG, Bonaduz, Switzerland). The needle was inserted at a 5 mm depth from the skull and F98 cells were diluted in 10 µL of DMEM containing low-gelling temperature agarose at a concentration of either 10^3 for therapeutic experiments or 10^5 cells for biodistribution experiments. They were injected over 30 s using an automatic infuser pump. The needle entry hole was immediately sealed with bone wax and the incised scalp was closed with 3-0 silk sutures (Ethicon, North Ryde, NSW). After surgery, all animals were given atipamezole hydrochloride (0.15 mg/kg bw, ip).
Biodistribution studies were performed in Fischer rats bearing intracerebral implants of F98 rat glioma cells. 10–13 days after tumor implantation of 10^5 F98 glioma cells, when signs of a progressively growing tumor were evident (weight loss, lethargy, hunching, and ataxia), biodistribution studies were initiated at which time the animals had tumors weighing 90–180 mg. […] To compare its biodistribution with that of BPA or BSH, another group of rats received an iv injection of BPA at a concentration of 10 mg ^10B/kg bw or BSH at a concentration of 30 mg ^10B/kg bw. Biodistribution was determined 1 and 3 h after termination of iv injection. Animals were euthanized by an overdose of sevoflurane following which tumors and normal tissues, consisting of ipsilateral brain, contralateral brain, blood, heart, lung, liver, spleen, kidney, skin, and muscle, were removed and weighed for ^10B determination by ICP-AES.

## N[C@@H](Cc1ccc(B(O)O)cc1)C(=O)O [BPA, boronophenylalanine, reference compound]
[1]
  10B concentration of F98 rat glioma cells: 0.654 ± 0.062 µg 10B/10^7 cells
[2]
  pIC50: < 1.70
[3]; 10 mg 10B/kg, 1 h
  10B concentration, Blood: 6.65 µg 10B/g
  10B concentration, Contralateral brain: 3.19 µg 10B/g
  10B concentration, Heart: 6.12 µg 10B/g
  10B concentration, Ipsilateral brain: 2.94 µg 10B/g
  10B concentration, Kidney: 27.57 µg 10B/g
  10B concentration, Liver: 5.40 µg 10B/g
  10B concentration, Lung: 5.74 µg 10B/g
  10B concentration, Muscle: 5.25 µg 10B/g
  10B concentration, Skin: 7.22 µg 10B/g
  10B concentration, Spleen: 7.58 µg 10B/g
  10B concentration, Tumor: 13.54 µg 10B/g and 13.54 ± 4.82 µg 10B/g
  T/Bl (tumor to blood ratio): 2.00
  T/Br (tumor to normal contralateral brain ratio): 4.21
[3]; 10 mg 10B/kg, 3 h
  10B concentration, Blood: 4.41 µg 10B/g
  10B concentration, Contralateral brain: 2.95 µg 10B/g
  10B concentration, Heart: 3.92 µg 10B/g
  10B concentration, Ipsilateral brain: 3.29 µg 10B/g
  10B concentration, Kidney: 11.69 µg 10B/g
  10B concentration, Liver: 3.54 µg 10B/g
  10B concentration, Lung: 4.12 µg 10B/g
  10B concentration, Muscle: 4.89 µg 10B/g
  10B concentration, Skin: 4.80 µg 10B/g
  10B concentration, Spleen: 6.02 µg 10B/g
  10B concentration, Tumor: 11.05 µg 10B/g
  T/Bl (tumor to blood ratio): 2.53
  T/Br (tumor to normal contralateral brain ratio): 3.83

## dodecaboranethiol [BSH, reference compound]
[1]
  10B concentration of F98 rat glioma cells: 0.508 ± 0.072 µg 10B/10^7 cells
[2]
  pIC50: 2.77
[3]; 30 mg 10B/kg, 1 h
  10B concentration, Blood: 19.17 µg 10B/g
  10B concentration, Contralateral brain: 0.32 µg 10B/g
  10B concentration, Heart: 3.25 µg 10B/g
  10B concentration, Ipsilateral brain: 0.44 µg 10B/g
  10B concentration, Kidney: 20.84 µg 10B/g
  10B concentration, Liver: 20.81 µg 10B/g
  10B concentration, Lung: 12.70 µg 10B/g
  10B concentration, Muscle: 5.25 µg 10B/g
  10B concentration, Skin: 7.99 µg 10B/g
  10B concentration, Spleen: 5.68 µg 10B/g
  10B concentration, Tumor: 5.49 µg 10B/g and 5.49 ± 0.25 µg 10B/g
  T/Bl (tumor to blood ratio): 0.29
  T/Br (tumor to normal contralateral brain ratio): 17.61
[3]; 30 mg 10B/kg, 3 h
  10B concentration, Blood: 5.16 µg 10B/g
  10B concentration, Contralateral brain: 0.24 µg 10B/g
  10B concentration, Heart: 1.15 µg 10B/g
  10B concentration, Ipsilateral brain: 0.36 µg 10B/g
  10B concentration, Kidney: 10.83 µg 10B/g
  10B concentration, Liver: 8.10 µg 10B/g
  10B concentration, Lung: 4.92 µg 10B/g
  10B concentration, Muscle: 0.87 µg 10B/g
  10B concentration, Skin: 4.00 µg 10B/g
  10B concentration, Spleen: 2.74 µg 10B/g
  10B concentration, Tumor: 3.01 µg 10B/g
  T/Bl (tumor to blood ratio): 0.61
  T/Br (tumor to normal contralateral brain ratio): 12.71
